Reference: patent publication US11396522B2, “Bis-acetal-based substrates for imaging exo-glycosidase activity” (ALECTOS THERAPEUTICS INC., priority 2017, dated 2022)
Entries after “also recorded” stand apart in the source; their conditions may differ. Each block holds one compound with its values, some of them ahead of it.

How the values were obtained:
GBA1 = biological target: T1, GBA1 (Homo sapiens, UniProt P04062); assay: Live cell imaging of GBA1 activity in SK-N-SH cells; assay type: cell-based
T1 sequence (P04062 40-536): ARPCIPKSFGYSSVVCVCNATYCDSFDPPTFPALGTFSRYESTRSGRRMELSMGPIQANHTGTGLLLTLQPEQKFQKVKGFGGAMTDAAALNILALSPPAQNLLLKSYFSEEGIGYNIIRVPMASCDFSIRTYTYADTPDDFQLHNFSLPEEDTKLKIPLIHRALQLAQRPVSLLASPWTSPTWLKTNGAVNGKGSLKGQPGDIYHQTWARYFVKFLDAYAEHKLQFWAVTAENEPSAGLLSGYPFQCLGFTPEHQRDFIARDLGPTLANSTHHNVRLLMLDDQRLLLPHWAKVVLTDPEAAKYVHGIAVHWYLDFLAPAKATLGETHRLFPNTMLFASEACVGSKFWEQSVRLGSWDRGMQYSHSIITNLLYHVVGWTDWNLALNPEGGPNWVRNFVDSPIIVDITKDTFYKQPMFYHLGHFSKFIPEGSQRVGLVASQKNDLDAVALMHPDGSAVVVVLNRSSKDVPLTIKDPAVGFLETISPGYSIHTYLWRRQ
Description: SK-N-SH cells were cultured, except where indicated otherwise, in EMEM supplemented with 10% FBS and 1% penicillin-streptomycin at 37° C. and 5% CO2. The media was replaced every 3-4 days and the cells passaged after reaching 70-80% confluency, which occurred approximately every week. For imaging experiments, cells were seeded in triplicate into the central 60 wells of a sterile 96-well plate (Corning 4680) at a density of 10000 cells/well.
Fluorescence measurements in live cells was performed using a Molecular Devices ImageXpress XLS High-Content Imaging system (HCl). Live cells were plated in a 96-well or 384-well Corning plates. Cells were left to adhere and incubated at 37° C. in 5% CO2 for at least 12 h in EMEM supplemented with 10% FBS and 1% penicillin-streptomycin before any treatment. Cells were then washed with warm (37° C.) EMEM (with no phenol red and FBS). A mixture of vehicle, substrate dissolved in DMSO (0.1% final concentration of DMSO), or substrate and inhibitor mixture, were added to the imaging media (EMEM with no phenol red or FBS supplemented with DAPI) which was then added to these cells and incubated at 37° C. and 5% CO2 in the dark for the times specified (typically 2 h). […] For each well, 9 sites were imaged at predefined regions of each well and 2 to 3 channel were recorded (DAPI, FITC, TRITC). The data was analyzed using the MetaXpress software suite. by determining the Mean Integrated Intensity obtained using the TRITC channel and dividing by the number of cells (determined thanks to DAPI staining).
The Glc-H-BABS(TAMRA/BHQ2) 8 was also evaluated in the human neuronal cell culture model cells SK-N-SH. […] By integrating the fluorescence intensity from randomly selected fields, it was possible to observe a quantitative increase in fluorescence with increasing concentrations of the Glc-BABS 8. Next, it was established that there is a dose-dependent cellular fluorescence where a linear increase in fluorescence was observed that depended on the concentration of Glc-BABS 8 (FIG. 12). […]

hOGA = biological target: T2, hOGA (Homo sapiens, UniProt O60502); assay: Interrupted assay for determination of hemiacetal breakdown; assay type: biochemical
T2 construct: started by addition of hOGA (WT, Full-length, expressed in E. coli. as previously described); made in house; host or cells: E. coli
T2 sequence (O60502 1-916): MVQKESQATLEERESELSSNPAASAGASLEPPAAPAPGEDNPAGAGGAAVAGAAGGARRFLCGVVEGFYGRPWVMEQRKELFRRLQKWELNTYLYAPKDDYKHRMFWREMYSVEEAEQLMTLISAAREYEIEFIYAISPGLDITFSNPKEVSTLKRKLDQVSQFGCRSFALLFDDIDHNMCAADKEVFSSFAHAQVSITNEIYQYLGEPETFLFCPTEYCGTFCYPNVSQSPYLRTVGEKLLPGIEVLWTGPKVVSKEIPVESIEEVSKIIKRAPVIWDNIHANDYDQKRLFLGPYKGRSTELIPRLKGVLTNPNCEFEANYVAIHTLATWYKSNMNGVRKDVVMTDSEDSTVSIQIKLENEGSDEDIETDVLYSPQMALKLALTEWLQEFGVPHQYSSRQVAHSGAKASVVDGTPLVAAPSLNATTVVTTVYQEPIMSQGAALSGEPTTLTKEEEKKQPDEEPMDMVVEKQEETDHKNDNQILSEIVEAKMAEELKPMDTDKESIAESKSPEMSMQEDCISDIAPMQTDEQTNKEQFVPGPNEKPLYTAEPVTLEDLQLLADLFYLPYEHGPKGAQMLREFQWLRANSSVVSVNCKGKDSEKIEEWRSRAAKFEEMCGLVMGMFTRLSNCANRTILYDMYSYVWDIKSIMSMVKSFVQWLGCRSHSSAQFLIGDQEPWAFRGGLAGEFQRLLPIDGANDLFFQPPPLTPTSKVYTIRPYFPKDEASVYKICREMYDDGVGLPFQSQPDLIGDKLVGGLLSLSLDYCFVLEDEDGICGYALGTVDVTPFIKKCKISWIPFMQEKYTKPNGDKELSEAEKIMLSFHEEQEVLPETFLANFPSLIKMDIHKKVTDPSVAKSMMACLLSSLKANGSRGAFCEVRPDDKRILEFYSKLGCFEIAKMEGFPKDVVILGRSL
Description: For some experiments, fluorescence kinetic assays were performed using a Varian Cary Eclipse Spectrophotometer set for 335/493 nm excitation/emission wavelengths. Slits were set at 10 nm and the detector was set on Medium voltage. Enzymatic reactions with human OGA were carried out in PBS at 37° C. and were started by addition of hOGA (WT, Full-length, expressed in E. coli. as previously described) in a total volume of 160 μL (Starna sub-micro Fluorometer cuvette). For measurements of rates using different concentrations of substrates, a hOGA concentration of 100 nM was used. For hOGA titration, 25 μM of Glyco-BABS were added to various concentration of hOGA. For interrupted assay, reaction was started by addition of hOGA (680 nM final) in solutions of GlcNAc-BABS in PBS. […] For hemiacetal breakdown rate measurements, data after Thiamet-G addition was extracted and fitted using Prism software. EDANS standard curve was established using endpoint fluorescence measurements of serial dilutions of EDANS in the relevant buffer using the same instrument parameters. Inner-Filter effect measurements were carried out in cuvette by measuring fluorescence of several concentrations of EDANS in presence of various concentrations of GlcNAc-BABS. Kinetics with Glc-BABS and GBA enzymes (GBA1 and GBA3 purchased from R&D Systems), kinetics with GALC (R&D systems) and Gal-BABS, pH stability, quenching efficiency, some inner-filter effect experiments and lysates experiments were carried out using a Molecular Devices SpectraMax i3× plate reader. Emission/Excitation wavelengths were set at 350 and 490 nm respectively for EDANS/DABCYL Glyco-BABS and at 565 and 610 nm respectively for TAMRA/BHQ2 Glyco-BABS. Fluorescence measurements were performed using Costar 96-well black plates or Nunc 384-well black plates after sample preparation in 96-well mixing plates. For GBA1, the continuous assay was performed in citrate buffer (50 mM, pH 5.5) in the presence of 0.1% Triton, 1 mg/mL BSA and 0.14% taurodeoxycholate at 25° C. […]

[1] = pH stability of Glyco-BABS; assay type: physicochemical; conditions: 5 μM, up to 72 h, pH 2 to 10
Excerpt: One concern with the Glyco-BABS design was the known lability of acetals under acidic conditions that has been exploited in pH-sensitive prodrugs or linkers for drug delivery.^41,42 However, we recognized that carbohydrate anomeric acetals are chemically distinct from regular acetals. Due to stabilization by the endocyclic oxygen, we expected these bis-acetals would show stability across a range of physiological pH values. We therefore assessed the stability of the bis-acetal motif toward acid and base hydrolysis (FIG. 8). To do so, we tested the pH stability of 5 μM of GlcNAc-Br-BABS 1, GlcNAc-OH-BABS 2, Glc-OH-BABS 6 and Glc-H-BABS 7 at different pH over time. We prepared solutions at various pH by mixing 0.2 M KCl+0.1 M HCl with 0.2 M KCl+0.1 M KOH. Fluorescence of EDANS and Glyco-BABS solutions (5 μM, 45 μL) at different pH was measured at different time points in Nunc 384-well plates using a SpectraMax i3× plate reader. Data (triplicates) support the highly efficient quenching and the stability of these substrates over a wide range of pH.

SMILES: COc1cc(/N=N/c2ccc([N+](=O)[O-])cc2)c(OC)cc1/N=N/c1ccc(N(C)CCCC(=O)NCc2cn(CCOCCOC(CC(=O)NCCCCCCNC(=O)c3ccc(-c4c5ccc(=[N+](C)C)cc-5oc5cc(N(C)C)ccc45)c(C(=O)[O-])c3)O[C@@H]3O[C@H](CO)[C@@H](O)[C@H](O)[C@H]3O)nn2)cc1 (stereo partly drawn) [Compound 8, 5-((6-(3-(2-(2-(4-((4-((4-((E)-(2,5-dimethoxy-4-((E)-(4-nitrophenyl)diazenyl)phenyl)diazenyl)phenyl)(methyl)amino)butanamido)methyl)-1H-1,2,3-triazol-1-yl)ethoxy)ethoxy)-3-(((2S,3R,4S,5S,6R)-3,4,5-trihydroxy-6-(hydroxymethyl)tetrahydro-2H-pyran-2-yl)oxy)propanamido)hexyl)carbamoyl)-2-(6-(dimethylamino)-3-(dimethyliminio)-3H-xanthen-9-yl)benzoate]
processing to fluorescent product in live SK-N-SH cells (GBA1; 5 μM and varying concentrations, 1 to 2 h): processed in cells to result in the fluorescent product

SMILES: O[C@H]1[C@H](O)CNC[C@@H]1C(F)F [AT3375, (3R,4R,5S)-5-(difluoromethyl)piperidine-3,4-diol]
effect on fluorescent signal of Glc-BABS 8 in live SK-N-SH cells (GBA1; 10 μM AT3375 with 5 μM Glc-BABS 8): significant reduction; also recorded: clear decrease of the signal
fluorescence signal vs inhibitor concentration in live SK-N-SH cells (GBA1; varying AT3375 concentrations, 5 μM Glc-BABS 8, 2 h): decreasing fluorescence signal with increasing inhibitor concentration

first order rate constant (k3) for hemiacetal breakdown (hOGA; hemiacetal generated from the substrate, hOGA stopped after 1 min with Thiamet-G 100 μM): 0.044 s⁻¹
hemiacetal breakdown, times faster than the one from GlcNAc-Br-BABS 1 (hOGA; ratio of k3): 4.5 times
pH stability (increase of fluorescence) [1]: no significant increase of fluorescence
SMILES: CC(=O)N[C@H]1[C@H](O[C@@H](OCCOCCn2cc(CNC(=O)c3ccc(/N=N/c4ccc(N(C)C)cc4)cc3)nn2)[C@@](C)(O)C(=O)NCCNc2cccc3c(S(=O)(=O)O)cccc23)O[C@H](CO)[C@@H](O)[C@@H]1O [Compound 2, 5-((2-((2R,3R)-3-(((2S,3R,4R,5S,6R)-3-acetamido-4,5-dihydroxy-6-(hydroxymethyl)tetrahydro-2H-pyran-2-yl)oxy)-3-(2-(2-(4-((4-((E)-(4-(dimethylamino)phenyl)diazenyl)benzamido)methyl)-1H-1,2,3-triazol-1-yl)ethoxy)ethoxy)-2-hydroxy-2-methylpropanamido)ethyl)amino)naphthalene-1-sulfonic Acid]
